What is called melting point is the temperature, or range, at which the solid turns liquid. `CC1CCC(NS(=O)(=O)NC(=O)OCc2ccccc2)CC1` (stereo not given) came in with a melting point of 153 to 155 °C.

`O=C(N=c1ccn(-c2ccccc2)nc1)c1ccccc1` registered a melting point of 175 to 176 °C.

On to `O=C1NC(=O)C(Cc2ccc(OCCC3OCCO3)cc2)S1` (stereo not given), for which the melting point was 102 to 104 °C.

Compound `N#CC1(Nc2ccccc2)CCN(C2CCC(c3ccc(F)cc3)(c3ccc(F)cc3)CC2)CC1` came in with a melting point of 139 to 140 °C.

Compound `CCN(C(C)=O)c1cc([N+](=O)[O-])cc([N+](=O)[O-])c1` showed a melting point of 98 to 100 °C.

In turn, `Fc1ccc2c(c1)nc(/C=C/C1CCCCC1)n2-c1ccccn1` had a melting point of 109 to 110 °C.

`Cc1nc(-c2ccccc2)ncc1C(=O)c1ccccc1` showed a melting point of 68 to 72 °C.

`CCCn1c(CCOC)nc2c(N)nc3cc(OCCCN)ccc3c21` showed a melting point of 165 to 166 °C.

In turn, `CCc1cccc(C)c1S(=O)(=O)c1nn(C(=O)N(CC)CC)cc1Cl` came in with a melting point of 68 to 72 °C.

Compound `Cc1cccc(C)c1NC(=O)CN1CCN(c2ncnc3sccc23)C(C)C1` (stereo not given) returned a melting point of 184 to 185 °C.

The compound `CC(C)(C)C1=CC(=Nc2cc(C(=O)O)ccc2O)C=C(C(C)(C)C)C1=O` had a melting point of 275 to 276 °C.

In the case of `OC(c1ccccc1)(c1ccccc1)C(F)(F)C(F)(F)F`, the melting point lay in the range of 82 to 83 °C.

Consider `C[C@@H](n1cnc2cc(-c3ccc(C#N)cc3)sc2c1=O)[C@](O)(Cn1cncn1)c1ccc(Cl)cc1Cl`, for which the melting point is 133 to 138 °C.

`CCOc1c(Nc2cccnc2)c(=O)c1=O`: the melting point fell in the range of 140 to 145 °C.

With `COc1nc(N)nc(-c2ccc(S(C)=O)cc2)c1-c1ccc(=O)n(C(C)C)n1` (stereo not given), the melting point lay within 127 to 130 °C.

In turn, `CCOC(=O)/C=C/c1ccc(OS(=O)(=O)C(F)(F)F)c(Cl)c1` registered a melting point of 59 to 61 °C.

In turn, `CCCCCCCCCCNC(=O)C=Cc1cccc(N2CC(C(=O)OCCN(CC)CC)CC2=O)c1` (stereo not given) gave a melting point of 78 to 80 °C.

In turn, `O=C(O)COc1ccc2c(=O)c3cccc(Cl)c3oc2c1Cl` displayed a melting point of 283 to 286 °C.

With `O=S(=O)(Nc1c(Cl)ccc2cc(-c3ncc(CO)s3)[nH]c12)c1cccs1`, the melting point lay within 197 to 199 °C.

For `COc1cc(OC)nc(Oc2cccnc2CO)n1`, the melting point was 115 °C.

`Cc1c(Cl)ccc(C(=O)c2cnn(C)c2O)c1Cl` registered a melting point of 131 to 135 °C.

For the compound `COc1ccc(CCN(C)CCCCc2ccc(NC(=O)c3cccc4c(=O)c5ccccc5[nH]c34)cc2)cc1`, the melting point amounted to 143 °C.

As to `COc1ccc(C2CC(=O)N(c3ccnc(NC(=O)NCc4ccccn4)c3)C2)cc1` (stereo not given), the melting point lay within 159 to 161 °C.

On to `O=S1(=O)CCON=C1c1c(Cl)cccc1Cl`, for which the melting point lay in the range of 180 to 182 °C.

`CCOC(=O)c1cc2c(F)cccc2[nH]c1=O` returned a melting point of 180 °C.

`CC(C)[C@H](NC(=O)OC(C)(C)C)C(=O)NCCCN1CCN(CCCNc2cccc3c2C(=O)c2ccccc2C3=O)CC1` returned a melting point of 108 °C.

In turn, `CN(C)C=C(C=O)c1ccc(Cl)cc1Cl` had a melting point of 112 to 114 °C.

The compound `CC(=O)c1ccccc1N(C)S(C)(=O)=O` yielded a melting point of 98 to 99 °C.

On to `CC(C)OP(=O)(Cc1c(C2CCCCC2)cc(O)cc1C1CCCCC1)OC(C)C`, for which the melting point is 143 °C.

The compound `CCCc1nc(N)nc(N2CCOCC2)n1` came in with a melting point of 127 to 128 °C.

As to `Cc1nnc(Sc2ncnc3c(C)csc23)s1`, the melting point was 144 to 147 °C.

On to `COc1cccc(N2C(c3ccccc3Cl)=NS(=O)(=O)c3cnccc32)c1`, for which the melting point was 227 to 229 °C.

Compound `Cc1c(CC(=O)O)oc2ccc(Cl)cc12` displayed a melting point of 149 to 150 °C.

On to `Nc1nnc(N2CCN(Cc3ccncc3)CC2)[nH]1`, for which the melting point was in the range of 191 to 193 °C.

Turning to `CC(C)OC(=O)c1ccc(=O)n(CCNC(=O)c2cccnc2)c1`, the melting point fell in the range of 160 to 161 °C.

Consider `O=C1C(Cc2ccccc2)NC(=S)N1c1nc(C(F)(F)F)cs1` (stereo not given), for which the melting point is 187 to 189 °C.

As to `FC(F)(F)c1ccccc1NCC1=NNCCN1`, the melting point was in the range of 97 to 98 °C.

`O=C(OCc1ccccc1)c1ccc(N2CCOCC2)cc1` returned a melting point of 85 to 86 °C.

For `CCCSc1ccc2c3c(cccc13)C(=O)N2`, the melting point lay in the range of 145 to 148 °C.

In turn, `CCc1nn(-c2ccc3cc(-c4ccc(-n5cnnc5)cc4)c(=O)oc3c2)nc1C` yielded a melting point of 321 to 323 °C.

With `CCOc1nn(-c2ccc(C(F)(F)F)cn2)cc1CCCOc1cc(OC)ccc1CC(=O)O`, the melting point fell in the range of 147 to 148 °C.

`COc1ccc(-c2csc(N)n2)cc1OC` returned a melting point of 198 to 201 °C.

In the case of `CCOC(=O)c1nnc2n1CC(=O)N(C)c1ccc(Cl)cc1-2`, the melting point lay in the range of 201 to 202 °C.

`CC1Cc2c(c(Cl)cc(F)c2N2C(=O)c3ccccc3C2=O)O1` (stereo not given) yielded a melting point of 158 to 160 °C.

`O=[PH](c1ccc(Cl)cc1)c1ccc(Cl)cc1` yielded a melting point of 124 °C.

Compound `N#Cc1ncn2c1NCC=C2c1cccc(C(F)(F)F)c1` yielded a melting point of 241 to 243 °C.

`CC(C)CCn1cc(C2CCN(CCOc3ccccc3C(=O)O)CC2)c2ccccc21` displayed a melting point of 150 to 151 °C.

`Nc1ccc(Cn2ncc3ccccc32)cc1` gave a melting point of 110 to 111 °C.

The compound `CC(=O)OC1CSC(Oc2cncc(-c3cccnc3Cl)c2)C(OC(C)=O)C1OC(C)=O` (stereo not given) gave a melting point of 162 °C.

In turn, `O=C(O)C(CCCc1ccccc1)NS(=O)(=O)c1ccc(N2CCC(c3ccccc3)CC2)cc1` (stereo not given) had a melting point of 59 to 62 °C.

In turn, `CCCCCCCCCCCCCCCCCC(=O)OC(CO)CO` displayed a melting point of 73 to 75 °C.

`CC=CC(=O)c1oc2c(-c3ccc(F)cc3)c(-c3ccc(S(C)(=O)=O)cc3)nn2c1C` had a melting point of 197 to 199 °C.

For `O=C(O)Cc1ccc(OCCc2ccccc2)c(OCc2ccccc2)c1`, the melting point lay within 116 to 119 °C.

In turn, `O=C(O)c1cccc(C(=O)O)c1[N+](=O)[O-]` came in with a melting point of 100 to 101 °C.

Compound `NC(=O)c1ccc2nccn2c1` returned a melting point of 202 to 204 °C.

The compound `CCNC(=O)c1c(Cl)cccc1[Si](C)(C)C1CCCCC1` registered a melting point of 111 to 113 °C.

The compound `COC(=O)C1=C(C)NC(C)=C(C(=O)OCCCCCCOc2cc(-c3ccc(OC)cc3)[nH]n2)C1c1cccc(Cl)c1Cl` (stereo not given) showed a melting point of 146 to 148 °C.

`Nc1ccc(S(=O)c2ccc(-c3ccc(Br)cc3)cc2)cc1N` (stereo not given): the melting point was 161 to 164 °C.

The compound `CCOC(=O)CCc1cn(Cc2cccc(C(=O)Nc3cccnc3)c2)nc1-c1ccccc1` registered a melting point of 111 to 112 °C.

Consider `CC(=O)c1ccccc1Nc1nc(Nc2ccc3c(c2)CCCC(=O)N3C)ncc1Cl`, for which the melting point lay in the range of 215 to 217 °C.

With `CCCCCCCC(=O)c1cc2sc3sccc3c2s1`, the melting point lay within 130 to 131 °C.

Take `CCCc1cc(CCCCC(=O)O)ccc1OC`: the melting point came to 84 °C.

Take `N#Cc1cnc2c(oc3ccccc32)c1Nc1ccc(Cl)cc1F`: the melting point lay within 259 to 261 °C.

Compound `NS(=O)(=O)c1ccc(-c2cnn(CC(F)(F)F)c(=O)c2Oc2ccc(F)cc2)cc1` had a melting point of 150 to 152 °C.

Compound `CCN(CC)CCNc1cc(-c2c(-c3cccc(C)c3)nc3cccnn23)ccn1` registered a melting point of 97 to 98 °C.
